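Following 48 hours of exposure in 96-well plates, responses at five concentrations were used to interpolate endpoints linearly. The concentration for full growth arrest is given as TGI.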
Legend:
Assay in all cases: NCI anticancer screen, dose series, 48 h
RXF 393 renal = tested on: RXF 393 renal
HCC-2998 colon = tested on: HCC-2998 colon
MOLT-4 leukemia = tested on: MOLT-4 leukemia
SW-620 colon = tested on: SW-620 colon
DU-145 prostate = tested on: DU-145 prostate
HS 578T breast = tested on: HS 578T breast
HOP-92 NSCLC = tested on: HOP-92 NSCLC
CAKI-1 renal = tested on: CAKI-1 renal
SNB-75 CNS = tested on: SNB-75 CNS
KM12 colon = tested on: KM12 colon
U251 CNS = tested on: U251 CNS
OVCAR-4 ovarian = tested on: OVCAR-4 ovarian
RPMI-8226 leukemia = tested on: RPMI-8226 leukemia
SK-MEL-28 melanoma = tested on: SK-MEL-28 melanoma
HCT-15 colon = tested on: HCT-15 colon
COLO 205 colon = tested on: COLO 205 colon
SN12C renal = tested on: SN12C renal
786-0 renal = tested on: 786-0 renal
MDA-MB-435 = tested on: MDA-MB-435
OVCAR-8 ovarian = tested on: OVCAR-8 ovarian
SK-MEL-2 melanoma = tested on: SK-MEL-2 melanoma
A549 NSCLC = tested on: A549 NSCLC
MALME-3M melanoma = tested on: MALME-3M melanoma
UACC-62 melanoma = tested on: UACC-62 melanoma
HCT-116 colon = tested on: HCT-116 colon
ACHN renal = tested on: ACHN renal
MCF7 breast = tested on: MCF7 breast
OVCAR-5 ovarian = tested on: OVCAR-5 ovarian
A498 renal = tested on: A498 renal
CCRF-CEM leukemia = tested on: CCRF-CEM leukemia
NCI-H23 lung = tested on: NCI-H23 lung
SF-295 CNS = tested on: SF-295 CNS
K-562 leukemia = tested on: K-562 leukemia
NCI-H226 lung = tested on: NCI-H226 lung
SNB-19 CNS = tested on: SNB-19 CNS
SK-OV-3 ovarian = tested on: SK-OV-3 ovarian
MDA-N = tested on: MDA-N
HT29 colon = tested on: HT29 colon
UO-31 renal = tested on: UO-31 renal
HOP-62 NSCLC = tested on: HOP-62 NSCLC
M14 melanoma = tested on: M14 melanoma
NCI/ADR-RES ovarian = tested on: NCI/ADR-RES ovarian
NCI-H522 lung = tested on: NCI-H522 lung
SK-MEL-5 melanoma = tested on: SK-MEL-5 melanoma
T-47D breast = tested on: T-47D breast
UACC-257 melanoma = tested on: UACC-257 melanoma
LOX IMVI melanoma = tested on: LOX IMVI melanoma
SF-539 CNS = tested on: SF-539 CNS
HL-60(TB) leukemia = tested on: HL-60(TB) leukemia
MDA-MB-231 breast = tested on: MDA-MB-231 breast
PC-3 prostate = tested on: PC-3 prostate
OVCAR-3 ovarian = tested on: OVCAR-3 ovarian
NCI-H460 lung = tested on: NCI-H460 lung
EKVX NSCLC = tested on: EKVX NSCLC
SR leukemia = tested on: SR leukemia
IGROV1 ovarian = tested on: IGROV1 ovarian
SF-268 CNS = tested on: SF-268 CNS
TK-10 renal = tested on: TK-10 renal

`Nc1ncnc2c1ncn2C1OC(CO)C2OC21` (stereo not drawn) was tested, and the TGI (RXF 393 renal) was over 100 µM, the TGI (HCC-2998 colon) was over 100 µM and the TGI (MOLT-4 leukemia) was over 100 µM. The TGI (SW-620 colon) was over 100 µM, the TGI (DU-145 prostate) was over 100 µM and the TGI (HS 578T breast) was over 100 µM. It also gave a TGI (HOP-92 NSCLC) of over 100 µM, a TGI (CAKI-1 renal) of over 100 µM and a TGI (SNB-75 CNS) of over 100 µM. It also gave a TGI (KM12 colon) of over 100 µM, a TGI (U251 CNS) of over 100 µM and a TGI (OVCAR-4 ovarian) of over 100 µM. The TGI (RPMI-8226 leukemia) was over 100 µM, the TGI (SK-MEL-28 melanoma) was over 100 µM and the TGI (HCT-15 colon) was over 10 µM. The TGI (COLO 205 colon) was over 100 µM, the TGI (SN12C renal) was over 100 µM and the TGI (786-0 renal) was over 10 µM. It also gave a TGI (MDA-MB-435) of over 10 µM, a TGI (OVCAR-8 ovarian) of over 100 µM and a TGI (SK-MEL-2 melanoma) of over 100 µM. The TGI (A549 NSCLC) was over 100 µM, the TGI (MALME-3M melanoma) was over 10 µM and the TGI (UACC-62 melanoma) was over 100 µM. For the same compound, the TGI (HCT-116 colon) was over 100 µM, the TGI (ACHN renal) was over 100 µM and the TGI (MCF7 breast) was over 100 µM. For the same compound, the TGI (OVCAR-5 ovarian) was over 100 µM, the TGI (A498 renal) was over 100 µM and the TGI (CCRF-CEM leukemia) was over 100 µM. For the same compound, the TGI (NCI-H23 lung) was over 100 µM, the TGI (SF-295 CNS) was over 100 µM and the TGI (K-562 leukemia) was over 100 µM. The TGI (NCI-H226 lung) was over 100 µM, the TGI (SNB-19 CNS) was over 100 µM and the TGI (SK-OV-3 ovarian) was over 100 µM. For the same compound, the TGI (MDA-N) was over 10 µM, the TGI (HT29 colon) was over 100 µM and the TGI (UO-31 renal) was over 100 µM. For the same compound, the TGI (HOP-62 NSCLC) was over 100 µM, the TGI (M14 melanoma) was over 10 µM and the TGI (NCI/ADR-RES ovarian) was over 10 µM. The TGI (NCI-H522 lung) was over 100 µM, the TGI (SK-MEL-5 melanoma) was over 100 µM and the TGI (T-47D breast) was over 100 µM. The TGI (UACC-257 melanoma) was over 100 µM, the TGI (LOX IMVI melanoma) was over 100 µM and the TGI (SF-539 CNS) was over 100 µM. For the same compound, the TGI (HL-60(TB) leukemia) was over 100 µM, the TGI (MDA-MB-231 breast) was over 100 µM and the TGI (PC-3 prostate) was over 100 µM. It also gave a TGI (OVCAR-3 ovarian) of over 10 µM, a TGI (NCI-H460 lung) of over 10 µM and a TGI (EKVX NSCLC) of over 100 µM. The TGI (SR leukemia) was over 100 µM, the TGI (IGROV1 ovarian) was over 100 µM and the TGI (SF-268 CNS) was over 100 µM. For the same compound, the TGI (TK-10 renal) was over 100 µM.

Source: PubChem BioAssay (NCI)
